# According to patent US20100190768A1, “NOVEL FUSED PYROLE DERIVATIVE” (Dainippon Sumitomo Pharma Co., Ltd., priority 2005, published 2010):
# Where two headings read alike, the source gives them in different places.
# Key:
# [1] = biological target: T1, human GRα protein (Homo sapiens, UniProt P04150); experiment: Binding inhibitory assay (displacement of 3H-dexamethasone from the cytoplasm fraction of baculovirus-infected insect cells); conditions: read-out: Binding Inhibitory ratio (%) of 100 nM of test compound
# T1 construct: made in house; host or cells: insect cells infected with baculovirus; cytoplasm fraction used
# T1 sequence (P04150 1-777): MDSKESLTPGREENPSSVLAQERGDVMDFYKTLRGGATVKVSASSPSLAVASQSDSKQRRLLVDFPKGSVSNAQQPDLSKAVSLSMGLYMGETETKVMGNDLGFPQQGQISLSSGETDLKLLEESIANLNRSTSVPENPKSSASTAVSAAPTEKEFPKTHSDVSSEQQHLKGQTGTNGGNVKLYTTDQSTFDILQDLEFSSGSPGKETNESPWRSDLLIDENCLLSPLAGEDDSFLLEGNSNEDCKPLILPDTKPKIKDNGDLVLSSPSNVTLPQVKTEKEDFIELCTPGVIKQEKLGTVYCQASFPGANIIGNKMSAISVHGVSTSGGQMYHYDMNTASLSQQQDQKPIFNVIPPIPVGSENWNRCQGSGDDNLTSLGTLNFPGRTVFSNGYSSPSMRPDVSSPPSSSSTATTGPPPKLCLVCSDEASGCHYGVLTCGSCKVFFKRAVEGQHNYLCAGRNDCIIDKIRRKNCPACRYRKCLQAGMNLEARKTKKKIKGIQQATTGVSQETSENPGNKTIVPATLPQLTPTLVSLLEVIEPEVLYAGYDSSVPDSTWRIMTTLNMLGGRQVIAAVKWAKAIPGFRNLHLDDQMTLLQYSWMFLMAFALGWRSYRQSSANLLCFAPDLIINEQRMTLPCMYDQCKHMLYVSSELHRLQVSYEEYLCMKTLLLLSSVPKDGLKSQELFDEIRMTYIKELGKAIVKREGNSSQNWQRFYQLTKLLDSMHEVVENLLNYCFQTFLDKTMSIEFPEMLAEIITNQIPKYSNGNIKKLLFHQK
# Protocol: Insect cells, which had been infected with baculovirus for expressing human GRα protein, were suspended in an approximately equal volume of a binding buffer (10 mM Tris-Cl, 1.5 mM EDTA, 10% glycerol, 5 mM DTT, 20 mM sodium molybdate, pH 7.6). The mixture was rapidly frozen with liquid nitrogen, and then melted at room temperature. This cycle was repeated totally twice in order to break the cell membrane. The mixture was ultracentrifuged under 100,000 g at 4° C. for one hour to give the supernatant, which was the cytoplasm fraction containing human GRα protein.
# A polypropylene 96-well plate (manufactured by Costar Corporation, etc.) was placed on ice, and DMSO or a test compound (each 1 μl) was put into each well. A 10 nM ^3H-Dex solution (50 μl; tritiated dexamethasone; manufactured by Amersham) in the binding buffer, and a GR protein solution, i.e., a solution by diluting the above cytoplasm fraction with the binding buffer (50 μl) were added to each well, and the plate was lightly shaken with a plate mixer, and then left to stand at 4° C. for 16 to 20 hours (the final concentration of DMSO: 1%).
# A 5% solution of dextran-coated active carbon (manufactured by Sigma) suspended in the binding buffer (50 μl) was put into each well, and the plate was lightly shaken with a plate mixer for 30 seconds. Then, the plate was centrifuged at 2500 rpm at 4° C. for 5 minutes, and the ^3H count in the supernatant (50 μl) was measured by a TopCount (manufactured by Perkin-Elmer Corporation). Each test compound was tested twice.
# The binding activity was calculated as follows. The mean ^3H count in the presence of dexamethason (Dex) 10 μM was considered as NSB (non-specific binding), and the binding inhibitory ratio in each well was calculated by the following equation.
# Binding Inhibitory Ratio (%)=100×{1−(cpm value of each well−NSB)/(mean cpm value of DMSO-well−NSB)}
# (cpm means count per minute)
# The mean binding inhibitory ratio of each well was calculated by the above equation to give a binding inhibitory ratio of each test compound.
# [2] = system: H4-III-E cells; experiment: TAT (tyrosine aminotransferase) assay; format: cell-based; conditions: for Agonistic activity of 10 μM test compound / activation at 10 µM: 10 μM test compound alone, relative to maximum Dex-induced TAT activity (100%); for Antagonistic activity of 10 μM test compound: 10 μM test compound together with 0.005 μM dexamethasone, inhibitory ratio against TAT activity increase by Dex; for activation at 10 µM: read-out: Agonistic activity of 10 μM test compound
# Protocol: H4-III-E cells, which had been continuously cultured in α-MEM medium A (supplemented with 10% inactivated FBS, 50 μM 2-mercapto-ethanol), were suspended in α-MEM medium A or α-MEM medium B (supplemented with 10% inactivated FBS, 50 μM 2-mercapto-ethanol, but without phenol red), and the cell suspension was seeded to a 96-well plate in an amount of 2×10^4 cells/100 μl/well, and the cells were cultured overnight. The supernatant in the medium was removed, and a test compound (100 μl, diluted with α-MEM medium A or α-MEM medium B) was added, and the cells were further cultured overnight. In order to measure the agonistic activity, a test compound was added alone, while in order to measure the antagonistic activity, a test compound was added simultaneously together with 0.005 μM dexamethasone and evaluated the extent of the inhibitory effect of said test compound against the TAT activity-inducing activity by dexamethasone.
# The culture supernatant in the plate was removed by suction, and a cell lysate (20 μL; 1% NP-40, 0.2% Triton X-100, 0.25% DOC, 0.1% SDS, 1 mM EGTA, 150 mM NaCl, Tris (pH7.4), Protease inhibitor cocktail [2.5 mg/ml aprotinin, 2.5 mg/ml leupeptin, 2.5 mg/ml soybean trypsin inhibitor]) was added, and further thereto was added a TAT reaction reagent (150 μL; 10 N KOH, 0.125 M KH2PO4, 0.5 M α-ketoglutarate, 5 mM Pyridoxal-5′ phosphate, L-tyrosine), and the mixture was reacted at 37° C. for 15 minutes. Further, a 10N KOH (20 μL) was added thereto, and the mixture was reacted at 37° C. for 30 minutes, and the absorbance at 331 nm was measured by a microplate reader (SPECTRA MAX 250).
# From the mean absorbance in the wells to which a test compound was added, the mean absorbance in the wells to which a compound and a TAT reaction solution were not added was subtracted.
# Agonistic activity (%)=100×[(absorbance of the drug-treated group)−(absorbance of the group without TAT reaction reagent)]/[(absorbance of Dex-treated group)−(absorbance of the group without TAT reaction reagent)]
# On the other hand, the antagonistic activity was calculated as follows.
# Antagonistic activity (%)=Inhibitory ratio (%) against TAT activity increase by Dex=100−100×[(absorbance of the drug-treated group)−(absorbance of the group without a drug)]/[(absorbance of Dex-treated group)−(absorbance of the group without a drug)]
# With regard to the agonistic activity and the antagonistic activity, the results of 10% or more were expressed as O, while the results of less than 10% were expressed as X.
# [3] = 100 nM test compound, 3H-Dex, NSB with 10 μM dexamethasone
Structure (SMILES),"inhibition at 0.1 µM [1, 3]",Agonistic activity of 10 μM test compound [2],Antagonistic activity of 10 μM test compound [2],inhibition at 0.1 µM [1],activation at 10 µM [2]
"O=C(O)c1ccc(OC2CCN(CC(O)(c3cn(Cc4ccccc4)c4cc([N+](=O)[O-])ccc34)C(F)(F)F)CC2)cc1 (centres unmarked) [Example 178, 4-({1-[2-(1-Benzyl-6-nitro-1H-indol-3-yl)-3,3,3-trifluoro-2-hydroxypropyl]-piperidin-4-yl}oxy)benzoic acid]",95%,◯,◯,,
"CCOC(=O)C(O)(c1cn(Cc2ccccc2)c2cc([N+](=O)[O-])ccc12)C(F)(F)F (centres unmarked) [Example 2, Ethyl 2-(1-benzyl-6-nitro-1H-indol-3-yl)-3,3,3-trifluoro-2-hydroxypropanoate]",,,◯,87%,< 10%
"O=C(N1CCOCC1)C(O)(c1cn(Cc2ccccc2)c2ccccc12)C(F)(F)F (centres unmarked) [Example 152, 2-(1-Benzyl-1H-indol-3-yl)-1,1,1-trifluoro-3-morpholin-4-yl-3-oxopropan-2-ol]",50%,,,,< 10%
"O=[N+]([O-])c1ccc2c(C(O)(CNCc3ccccc3)C(F)(F)F)cn(Cc3ccccc3)c2c1 (centres unmarked) [Example 137, 3-(Benzylamino)-2-(1-benzyl-6-nitro-1H-indol-3-yl)-1,1,1-trifluoropropan-2-ol]",92%,◯,◯,,
"O=[N+]([O-])c1ccc2c(C(O)(CN3CCC(O)CC3)C(F)(F)F)cn(Cc3ccccc3)c2c1 (centres unmarked) [Example 78, 1-[2-(1-Benzyl-6-nitro-1H-indol-3-yl)-3,3,3-trifluoro-2-hydroxypropyl]piperidin-4-ol]",81%,◯,◯,,
"O=C(c1cccs1)C1CCN(CC(O)(c2cn(Cc3ccccc3)c3cc([N+](=O)[O-])ccc23)C(F)(F)F)CC1 (centres unmarked) [Example 194, {1-[2-(1-Benzyl-6-nitro-1H-indol-3-yl)-3,3,3-trifluoro-2-hydroxypropyl]piperidin-4-yl}(2-thienyl)methanone]",94%,◯,◯,,
"COc1cccc(N2CCN(CC(O)(c3cn(Cc4ccccc4)c4cc([N+](=O)[O-])ccc34)C(F)(F)F)CC2)c1 (centres unmarked) [Example 144, 2-(1-Benzyl-6-nitro-1H-indol-3-yl)-1,1,1-trifluoro-3-[4-(3-methoxyphenyl)-piperazin-1-yl]propan-2-ol]",97%,◯,◯,,
"O=[N+]([O-])c1ccc2c(C(O)(Cn3cccn3)C(F)(F)F)cn(Cc3ccccc3)c2c1 (centres unmarked) [Example 150, 2-(1-Benzyl-6-nitro-1H-indol-3-yl)-1,1,1-trifluoro-3-(1H-pyrazol-1-yl)propan-2-ol]",98%,◯,◯,,
"O=[N+]([O-])c1ccc2c(C(O)(CN3CCCC(O)C3)C(F)(F)F)cn(Cc3ccccc3)c2c1 (centres unmarked) [Example 165, 1-[2-(1-Benzyl-6-nitro-1H-indol-3-yl)-3,3,3-trifluoro-2-hydroxypropyl]piperidin-3-ol]",95%,◯,◯,,
"O=C(c1cccnc1)C1CCN(CC(O)(c2cn(Cc3ccccc3)c3cc([N+](=O)[O-])ccc23)C(F)(F)F)CC1 (centres unmarked) [Example 197, {1-[2-(1-Benzyl-6-nitro-1H-indol-3-yl)-3,3,3-trifluoro-2-hydroxypropyl]piperidin-4-yl}(pyridin-3-yl)methanone]",94%,◯,◯,,
"COC(CN1CCC(C(=O)c2ccccc2)CC1)(c1cn(Cc2ccccc2)c2cc([N+](=O)[O-])ccc12)C(F)(F)F (centres unmarked) [Example 153, {1-[2-(1-Benzyl-6-nitro-1H-indol-3-yl)-3,3,3-trifluoro-2-methoxypropyl]piperidin-4-yl}(phenyl)methanone]",91%,◯,◯,,
"O=[N+]([O-])c1ccc2c(C(O)(CN3CCC(O)(Cc4ccccc4)CC3)C(F)(F)F)cn(Cc3ccccc3)c2c1 (centres unmarked) [Example 76, 4-Benzyl-1-[2-(1-benzyl-6-nitro-1H-indol-3-yl)-3,3,3-trifluoro-2-hydroxypropyl]-piperidin-4-ol]",60%,,◯,,< 10%
"O=C(c1cccs1)N1CCN(CC(O)(c2cn(Cc3ccccc3)c3cc([N+](=O)[O-])ccc23)C(F)(F)F)CC1 (centres unmarked) [Example 106, 2-(1-Benzyl-6-nitro-1H-indol-3-yl)-1,1,1-trifluoro-3-[4-(2-thienylcarbonyl)-piperazin-1-yl]propan-2-ol]",101%,◯,◯,,
"O=[N+]([O-])c1ccc2c(C(O)(Cn3ccnc3)C(F)(F)F)cn(Cc3ccccc3)c2c1 (centres unmarked) [Example 158, 2-(1-Benzyl-6-nitro-1H-indol-3-yl)-1,1,1-trifluoro-3-(1H-imidazol-1-yl)propan-2-ol]",96%,,◯,,< 10%
"O=[N+]([O-])c1ccc2c(C(O)(CNCCOc3ccccc3)C(F)(F)F)cn(Cc3ccccc3)c2c1 (centres unmarked) [Example 133, 2-(1-Benzyl-6-nitro-1H-indol-3-yl)-1,1,1-trifluoro-3-[(2-phenoxyethyl)amino]-propan-2-ol]",51%,,◯,,< 10%
